Patent US5032597A, “Method of using phenylquinolinecarboxylic acids and derivatives for lymthoid leukemia treatment in a mammal” (priority 1987, dated 1991)
≈ marks a conversion by molar mass, not a printed value. Where “and” joins values, the source holds several entries; their conditions need not be identical. Equal entries are not always repeated. Where two headings read alike, the source gives them in different places.

Legend:
[1] = test system: human colon carcinoma cells HCT-15; test: Human colon tumor test in vitro, HCT-15 cell growth inhibition; assay type: cell-based; conditions: for IC50: Homo sapiens, HCT-15, 72 h, read-out: in vitro HCT-15 ID50 (50 percent inhibition of number of doublings); for in vitro HCT-15 ID50 (50 percent inhibition of number of doublings): 4320 min
Outline: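 HCT-15 human colon adenocarcinoma cells in RPMI 1640 with 10% heat-inactivated FCS, compound added on day 1 and cells counted by hemocytometer on day 4. ID50 is the concentration (μg/ml) halving the number of doublings, from log-log dose-response plots.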

[2] = test system: human colon tumor HCT-15; test: Human colon tumor HCT-15 in athymic mice; assay type: in vivo, Swiss NU/NU athymic mice; conditions: for Average Tumor Weight, Day 7 (day treatment was started) / Average Tumor Weight, Day 21 / Net Tumor Weight gain, Day 21 / Tumor Growth Inhibition, Day 21: 5 days from day 7; for toxicity: 40 mg/kg i.p., athymic mice
Description: The compounds of Example 1 and 91 were also tested for effectiveness against a human colon tumor implanted in athymic mice.
The animals used were Swiss NU/NU athymic mice, weighing 20-22 g each at the start of the test. The test group consisted of twelve mice, seven males and five females. The HCT-15 tumor cell line, derived from a patient with adenocarcinoma of the colon, was maintained in culture. The tumor was implanted in each of the test mice by the subcutaneous injection in the flank region of 0.2 ml of physiological saline containing 10^7 HCT-15 cultured cells. Tumors appeared within 72 hours and treatment started one week after tumor inoculation.
Test compounds, suspended in methocel (0.5% in water) or dissolved in water, were injected intraperitoneally once daily for five consecutive days starting on day seven relative to the day of tumor inoculation (day 0). The body weight and the size of the tumor were determined daily. Tumor size was determined by two-dimensional caliper measurements. Tumor weight was estimated from the formula: [formula] tumor weight in which 1=length and w=width of the tumor in mm. The net tumor weight was determined by subtracting from the actual tumor weight at the time of evaluation the initial estimated tumor weight at the time treatment was started (day 7). Drug effectiveness was assessed on the basis of inhibition of the gain in net tumor weight in the treated (T) compared to that of the control (C) mice. Percent tumor growth inhibition was calculated by the formula: [formula]

[3] = test system: L1210 leukemia; test: Lymphoid Leukemia L1210, survival of tumored mice; assay type: in vivo, CD2F1 mice; conditions: Mus musculus, L1210, ip, 720 h; for response vs control in vivo at 200 mg/kg: 200 mg/kg i.p.
Outline: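 Male CD2 F1 mice, six per group, received 10^5 L1210 cells i.p. on day 0. Compounds in hydroxypropylcellulose, saline/Tween 80 or saline were given i.p. at various doses once daily on days 1-9, with vehicle controls.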

[4] = test system: colon tumors; conditions: in vivo; cited from earlier work
[5] = test system: melanotic melanoma B16; test: Melanotic Melanoma B16 test, survival of tumored mice; assay type: in vivo, B6C3F1 mice; conditions: for T/C × 100 (median survival time): 9 days, 2 tests
Description: The efficacy of the compounds of this invention against the transplanted mouse tumors was evaluated in test systems currently in use at the National Cancer Institute for the detection and assessment of anticancer activity. […] J. Cancer, 17, 129-142, (1981); Venditti, J. M., Seminars in Oncology, 8 (4) (1981); Goldin, A. and J. M. Venditti, in Recent Results in Cancer Research, 70, S. K. Carter and Y. Sakurai, Eds., Springer-Verlag, Berlin/Heidelberg, 1980].
The animals used were B6 C3 F1 mice, all of one sex, weighing a minimum of 18 g for males and 17 g for females and all within a 4 g weight range at the start of the test. The test group comprised 9 or 10 mice. The tumor was implanted in each of the test mice by the subcutaneous injection of 0.5 ml of a tumor homogenate prepared by homogenizing a 1 g portion of melanotic melanoma in 10 ml of cold physiological saline. The test compounds suspended in hydroxypropylcellulose were administered intraperitoneally at various doses once daily for nine consecutive days starting on day one relative to the day of tumor inoculation (day 0). The control mice received injections of hydroxypropylcellulose vehicle only. The mice were weighted and survivors were recorded on a regular basis for 60 days. The median survival times and the ratio of the median survival times for treated (T) to control (C) mice were calculated. The median survival time of the nontreated tumored mice ranged from 15 to 17 days. Drug effectiveness was assessed on the basis of the survival time. Results were expressed as a percentage of the control survival time (Survival Time T/C ×100%). The criterion for effectiveness was determined by: T/C ×100 ≥125 percent.

[6] = test system: liver tissue; conditions: cited from earlier work
[7] = test system: NF mouse sarcoma; conditions: in vitro; cited from earlier work
[8] = read-out: L1210 Leukemia % T/C (median survival time)
[9] = HCT-15 cells, compound day 1 to day 4
[10] = 25 mg/kg i.p., nonoptimal Q1DX9 instead of Q3DX9, read-out: L1210 Leukemia % T/C (median survival time)

O=c1[nH]cc(F)c(=O)[nH]1 [5-Fluorouracil, reference compound]
IC50 [1]: 0.27 µg/mL (≈ 2.08 µM) | effectiveness ([2]; 20 mg/kg i.p.): ineffective | Average Tumor Weight, Day 7 (day treatment was started) ([2]; 20 mg/kg i.p. once daily): 56.7 mg | Average Tumor Weight, Day 21 ([2]; 20 mg/kg i.p. once daily): 421.7 mg | Net Tumor Weight gain, Day 21 ([2]; 20 mg/kg i.p. once daily): 365 mg | Tumor Growth Inhibition, Day 21 ([2]; 20 mg/kg i.p. once daily): 0% | toxicity [2]: Toxic | toxicity ([2]; listed as 5-Fluorouacil): toxic | response vs control in vivo at 16 mg/kg [3, 8]: 228% | effectiveness in treatment of colon tumors in man [4]: not consistently effective

Cc1c(-c2ccc(C3CCCCC3)cc2)nc2ccc(F)cc2c1C(=O)[O-].[Na+] [Example 91, Sodium 2-(4-Cyclohexylphenyl)-6-fluoro-3-methylquinoline-4-carboxylate]
IC50 [1]: 0.04 µg/mL | Average Tumor Weight, Day 7 (day treatment was started) ([2]; 10 mg/kg i.p. once daily): 56.8 mg | Average Tumor Weight, Day 21 ([2]; 10 mg/kg i.p. once daily): 322.8 mg | Net Tumor Weight gain, Day 21 ([2]; 10 mg/kg i.p. once daily): 266.0 mg | Tumor Growth Inhibition, Day 21 ([2]; 10 mg/kg i.p. once daily): 10.0% | Average Tumor Weight, Day 7 (day treatment was started) ([2]; 20 mg/kg i.p. once daily): 56.2 mg | Average Tumor Weight, Day 21 ([2]; 20 mg/kg i.p. once daily): 245.1 mg | Net Tumor Weight gain, Day 21 ([2]; 20 mg/kg i.p. once daily): 188.9 mg | Tumor Growth Inhibition, Day 21 ([2]; 20 mg/kg i.p. once daily): 35.7% | Average Tumor Weight, Day 7 (day treatment was started) ([2]; 40 mg/kg i.p. once daily): 56.8 mg | Average Tumor Weight, Day 21 ([2]; 40 mg/kg i.p. once daily): 256.9 mg | Net Tumor Weight gain, Day 21 ([2]; 40 mg/kg i.p. once daily): 200.1 mg | Tumor Growth Inhibition, Day 21 ([2]; 40 mg/kg i.p. once daily): 32.0% | response vs control in vivo at 40 mg/kg ([3]; read-out: L1210 Leukemia % T/C (median survival time), 40 mg/kg i.p., marked * (not explained)): 140% | response vs control in vivo at 100 mg/kg ([3]; read-out: L1210 Leukemia % T/C (median survival time), 100 mg/kg i.p., nonoptimal Q1DX9 instead of Q3DX9): 103%

N.N.[Cl][Pt][Cl] [Cisplatin, reference compound]
in vitro HCT-15 ID50 (50 percent inhibition of number of doublings) [1, 9]: 0.66 µg/mL | T/C × 100 (median survival time) ([5]; 1 mg/kg i.p. once daily): 175% | T/C × 100 (median survival time) ([5]; 2 mg/kg i.p. once daily): 212% and 136%

O=C(O)c1cc(-c2ccccc2)nc2ccccc12 [cinchophen, 2-phenyl-4-quinoline carboxylic acid]
degeneration of liver tissue [6]: can produce a degeneration of liver tissue of a possible precancerous nature | tumoricidal effect [7]: no tumoricidal effect

Cc1c(-c2ccc(C3CCCCC3)cc2)nc2ccc(F)cc2c1C(=O)O [Example 1, 2-(4-Cyclohexylphenyl)-6-fluoro-3-methylquinoline-4-carboxylic acid]
in vitro HCT-15 ID50 (50 percent inhibition of number of doublings) [1, 9]: 0.05 µg/mL | Average Tumor Weight, Day 7 (day treatment was started) ([2]; 50 mg/kg i.p. once daily): 56.3 mg | Average Tumor Weight, Day 21 ([2]; 50 mg/kg i.p. once daily): 252.9 mg | Net Tumor Weight gain, Day 21 ([2]; 50 mg/kg i.p. once daily): 196.6 mg | Tumor Growth Inhibition, Day 21 ([2]; 50 mg/kg i.p. once daily): 33.1% | Average Tumor Weight, Day 7 (day treatment was started) ([2]; 100 mg/kg i.p. once daily): 56.6 mg | Average Tumor Weight, Day 21 ([2]; 100 mg/kg i.p. once daily): 212.9 mg | Net Tumor Weight gain, Day 21 ([2]; 100 mg/kg i.p. once daily): 156.3 mg | Tumor Growth Inhibition, Day 21 ([2]; 100 mg/kg i.p. once daily): 46.8% | Average Tumor Weight, Day 7 (day treatment was started) ([2]; 200 mg/kg i.p. once daily): 56.8 mg | Average Tumor Weight, Day 21 ([2]; 200 mg/kg i.p. once daily): 156.3 mg | Net Tumor Weight gain, Day 21 ([2]; 200 mg/kg i.p. once daily): 99.4 mg | Tumor Growth Inhibition, Day 21 ([2]; 200 mg/kg i.p. once daily): 66.2% | response vs control in vivo at 200 mg/kg [3, 8]: 189% | T/C × 100 (median survival time) ([5]; 25 mg/kg i.p. once daily): 127% and 125% | T/C × 100 (median survival time) ([5]; 50 mg/kg i.p. once daily): 148% and 138% | T/C × 100 (median survival time) ([5]; 100 mg/kg i.p. once daily): 145% and 155% | T/C × 100 (median survival time) ([5]; 200 mg/kg i.p. once daily): 145% and 150% | T/C × 100 (median survival time) ([5]; 400 mg/kg i.p. once daily): 131% and 179% | effectiveness against B16 melanoma in mice ([5]; criterion T/C × 100 ≥125 percent): effective against the B16 melanoma in mice

Cc1c(-c2ccc(-c3ccccc3)cc2)nc2ccc(Cl)cc2c1C(=O)O [Example 109]
in vitro HCT-15 ID50 (50 percent inhibition of number of doublings) [1, 9]: < 0.50 µg/mL | response vs control in vivo at 100 mg/kg ([3]; 100 mg/kg i.p., read-out: L1210 Leukemia % T/C (median survival time)): 172%

Cc1c(-c2ccc(-c3ccccc3F)cc2)nc2ccc(F)cc2c1C(=O)[O-].[Na+] [Example 118, Sodium 2-(2'-Fluoro-1,1'-biphenyl-4-yl)-6-fluoro-3-methylquinoline-4-carboxylate]
IC50 [1]: 0.017 µg/mL | response vs control in vivo at 25 mg/kg ([3]; read-out: L1210 Leukemia % T/C (median survival time), 25 mg/kg i.p.): 179%

Cc1c(-c2ccc(C3CCCCC3)cc2)nc2c(Br)cc(Br)cc2c1C(=O)O [Example 136]
in vitro HCT-15 ID50 (50 percent inhibition of number of doublings) [1, 9]: > 0.50 µg/mL | response vs control in vivo at 25 mg/kg [3, 10]: 103%

CCCCCCc1ccc(-c2nc3ccc(F)cc3c(C(=O)O)c2C)cc1 [Example 180]
in vitro HCT-15 ID50 (50 percent inhibition of number of doublings) [1, 9]: < 0.50 µg/mL | response vs control in vivo at 18 mg/kg ([3]; 18 mg/kg i.p., nonoptimal Q1DX9 instead of Q3DX9, read-out: L1210 Leukemia % T/C (median survival time)): 101%

Cc1c(-c2ccc(-c3ccccc3)cc2)nc2ccc(C(F)(F)F)cc2c1C(=O)O [Example 56]
IC50 [1, 9]: < 0.5 µg/mL | response vs control in vivo at 75 mg/kg ([3]; 75 mg/kg i.p., read-out: L1210 Leukemia % T/C (median survival time)): 176%

CCCCCCCCCCc1ccc(-c2nc3ccc(F)cc3c(C(=O)O)c2C)cc1 [Example 97]
in vitro HCT-15 ID50 (50 percent inhibition of number of doublings) [1, 9]: 0.14 µg/mL | response vs control in vivo at 25 mg/kg [3, 10]: 110%

Cc1c(-c2ccc(-c3cccc(F)c3)cc2)nc2ccc(F)cc2c1C(=O)O [Example 73]
IC50 [1, 9]: < 0.1 µg/mL | response vs control in vivo at 50 mg/kg ([3]; 50 mg/kg i.p., read-out: L1210 Leukemia % T/C (median survival time)): 195%

CCCCCCCCCCc1ccc(-c2nc3ccc(F)cc3c(C(=O)O)c2C)cc1 [Example 7]
in vitro HCT-15 ID50 (50 percent inhibition of number of doublings) [1, 9]: 2.30 µg/mL | response vs control in vivo at 200 mg/kg [3, 8]: 136%
